Assay: Human HepG2 cell viability assay in 384 well format
Type: toxicity, cell-based
Parameters: dose 125 nL, time 70.5 hour; concentration not given beside the values
Settings: HepG2 cells, read-out: Inhibition

Structure (SMILES) | cytotoxicity at 70.5 h [%]
Cc1ccc(CN(CCCN2CCOCC2)Cc2cnn(C)c2)o1 | 0.657
CS(=O)(=O)NCc1ncn2c1CN(Cc1cccs1)CCC2 | -7.97
Cn1ncc2ccc(C3CCCN(Cc4ccsc4)C3)nc21 (configuration not stated) | 7.16
Cc1cccn2c(=O)cc(CN3CCCC3Cn3cccn3)nc12 (configuration not stated) | -1.74
COc1ccc(CNC(=O)NCC2CCOC2)c(C(F)(F)F)c1 (configuration not stated) | -2.53
CN(C)CCCN(C)c1nccc(N2CCN[C@H]3CS(=O)(=O)C[C@H]32)n1 | 23.2
COCC1CN(c2ccc(Cl)cc2C#N)CCO1 (configuration not stated) | -7.05
CC(C)C1CN(Cc2nccn2C(C)C)CCC(=O)N1CC1CC1 (configuration not stated) | 0.0298
CCc1ccc(CC(=O)N2CCN(c3nccn3C)CC2)cc1 | 8.19
Cc1ccc2cc(C(=O)N3CCC(O)(C(F)(F)F)CC3)ccc2n1 | 0.437
Cc1ncccc1CNCC1CCc2nnc(C(C)C)n2C1 (configuration not stated) | -7.03
Cc1ccc(-c2cc(C(F)(F)F)nc(N3CCOCC3)n2)s1 | -11.3
Cc1cc(C(=O)NCC(=O)N2CCOCC2)nn1C(C)(C)C | -17.2
COc1ccc(CC(=O)N2CCN(Cc3ccco3)C[C@H]2C)cc1OC | -5.07
Cc1nc(CC(=O)N2CCC3(CC2)CC(=O)N(CC2CCCO2)C3)cs1 (configuration not stated) | -3.04
CC(C)Cc1noc(CNc2cccc(-c3nnnn3C)c2)n1 | -11
CCCN1CCC2(C1)c1ccccc1S(=O)(=O)N2Cc1ccccc1 (configuration not stated) | 3.08
CCc1nccn1C1CCCN(C(=O)c2cnn3cccnc23)C1 (configuration not stated) | 27.7
CSCC(=O)NC1CC(=O)N(CCc2ccccc2)C1 (configuration not stated) | -10.9
O=C(NCC1COCCO1)c1csc(Cc2ccccc2)n1 (configuration not stated) | -4.7
CCc1cnc(N2Cc3cnc(C(C)(C)C)nc3C2)nc1 | -3.57

Structure (SMILES) | cytotoxicity at 70.5 h [%]
CCc1cc(NC2CCN(CC(N)=O)CC2)nc(N2CCCCC2)n1 | -2.44
Cc1cccc(N2CCN(CCC(=O)NCc3ccc(C)s3)CC2)c1 | 20.7
CNC(=O)CCCNc1cc(C)nc2cc(C)nn12 | 5.3
O=C(NCCCn1cccn1)C1COCC(=O)N1Cc1ccccc1 (configuration not stated) | -0.531
Cc1cccnc1CN(C)C(C(=O)O)c1ccc(-c2ccn[nH]2)cc1 (configuration not stated) | -3.62
Cc1csc([C@H]2C[C@@H]3CCN(Cc4cnn(C)c4)C[C@H]3O2)n1 | -7.09
O=C(CN1CCc2cncnc2C1)NC(C1CC1)C1CC1 | -12.3
O=C(CCCN1CCCCC1)N1CCN(C(=O)c2nc[nH]n2)CC1 | -3.03
Cc1cc(C)n(CCCN(C)C(=O)C2COc3ccccc3C2)n1 (configuration not stated) | 26.5
CS(=O)(=O)c1ccc(NCc2ccc(F)cc2)cn1 | -6.37
CC(C)OCCN1CCN(c2ccc(Cl)cn2)CC1 | -6.76
CNC(=O)C(C)(C)NC(=O)c1cc(OCC2CCC2)cc(C(=O)OC)c1 | -1.19
c1csc(CN2CCc3ncnc(C4CCOC4)c3CC2)n1 (configuration not stated) | -4.88
CCn1nc(C)cc1C(=O)N1CCC(Nc2ccc(C)nn2)CC1 | -85.5
O=C(C1CCOC1)N1CCN(CC(F)(F)F)c2ccccc21 (configuration not stated) | -5.62
Cc1nc(N)cc(C2CCN2CCC(N)=O)n1 (configuration not stated) | -3.73
Cc1nnnn1CCC(=O)N1CCC2(CCC(=O)N(CC3CC3)C2)CC1 | -8.64
Cc1nc(CN2CCC(c3nc4cc(Cl)ccc4o3)CC2)oc1C | -19.4
Cc1cc2ccccc2n1CCC(=O)N1CCCC2(CC1)CNC(=O)O2 (configuration not stated) | -7.42
COc1ccc(S(=O)(=O)NCc2cccnc2N(C)C)cc1F | 40.3
Cc1cc(-c2cc(N)c(=O)n(CC(=O)NCC3CCCCC3)n2)c(C)o1 | 12.5

Structure (SMILES) | cytotoxicity at 70.5 h [%]
Cc1cc(F)ccc1OC1(C(=O)O)CCN(Cc2ccncc2)CC1 | -8.64
Cc1nn(C)c(N(C)C)c1CNC1CCc2cc(F)ccc21 (configuration not stated) | -4.67
CCN(Cc1cccc2c1OCO2)C(=O)NC1CC1 | 8.97
Cc1ccc(C2CN(CCCC#N)CCO2)c(C)c1 (configuration not stated) | -2.64
O=C(Nc1nncs1)NC1CCCc2c1cnn2CCO (configuration not stated) | 4.56
Cc1cccc(CN2Cc3nccn3CC(CN3CCOCC3)C2)c1 (configuration not stated) | -9.03
CCc1cc(NC(=O)C2CCCN(C(=O)NCC(C)C)C2)[nH]n1 (configuration not stated) | -17.1
CC1CCCCN1Cc1nc(Cc2ccccc2)no1 (configuration not stated) | -10.4
Cc1cccn2c(=O)cc(OC(=O)c3ccccc3)nc12 | -17.1
Cc1ccc(C(=O)N2CC[C@@H]3[C@H]2CCC(=O)N3CCN(C)C)cn1 | 18.5
COc1c(C2CCCN2Cc2nc(C)c(C)o2)c(C)nn1C (configuration not stated) | -7.8
CN1CCCc2c1nc1c(c2N)CCC1 | -7.63
CCCn1c(N2CCCCC2)nc2c(C)nn(C)c2c1=O | 15.3
Cc1cc(C)n(CC2CCCN2Cc2nc(N)c3ccccc3n2)n1 (configuration not stated) | -3.06
O=C(c1ccsc1)N1CC[C@@H](N2CCOCC2)[C@@H]1Cc1ccccc1 | -11.8
CSCCN1CCC(NC(=O)OC(C)(C)C)CC1 | -6.72
CC(C)n1nc(CNc2ncccn2)c2c1CN(S(C)(=O)=O)CC2 | 10.7
COc1cc(F)ccc1N(C)Cc1cccnc1 | 15.7
COC1CCCN(Cc2nc(Cc3ccccc3F)no2)C1 (configuration not stated) | -5.83
COCC(=O)N1CCN(CC2CC2)c2ncccc2C1 | 15.5
CN(CCCc1cc(-c2ccccc2)n[nH]1)C(=O)CCCn1cncn1 | -6.04

Structure (SMILES) | cytotoxicity at 70.5 h [%]
Cc1nnc(N2C[C@@H](OCCCn3cccn3)[C@H]3OCCC[C@H]32)s1 | -9.45
Cc1cnn(CC2CCCN2C(=O)c2cccc(-n3ccc(C)n3)c2)c1 (configuration not stated) | -7.87
Cn1cc(Br)c(=O)c(NS(=O)(=O)c2ccccc2F)c1 | -9.33
CC(C)CCS(=O)(=O)CC(=O)N1CCCC1c1cnn(C)c1 (configuration not stated) | -5.18
CCn1c(N)nc2cc(C(=O)N3CCCOCC3)cnc21 | -6.56
CCOCCOC(C)C(=O)NCc1cn2cc(Br)ccc2n1 (configuration not stated) | -1.73
COc1ccccc1NC(=O)c1cnc(C2CCN(C(C)=O)C2)nc1C (configuration not stated) | -1.01
COc1ccc(CN2CC(O)CN(C(=O)CC(C)C)CC2=O)cc1 (configuration not stated) | 4.85
CCn1nc2c(cc1=O)CN(Cc1nc3ccccc3o1)CC2 | -9.68
CCOC(=O)c1ccc(N2CCN(Cc3c(C)nn(C)c3Cl)CC2)nc1 | 12.7
O=C1CC2(CCCC2)CN1CCOc1ccc(F)cc1 | -9.74
CC(C)[C@@H]1CN(Cc2cnc(C3CCCCC3)nc2)C[C@H]1C(=O)O | 8.1
CC(=O)N[C@@H]1CN(Cc2oc3ccccc3c2C)C[C@H]1c1ccc(C)o1 | -7.22
COCC(=O)N1CC[C@@H]2CN(Cc3cccnc3)S(=O)(=O)[C@@H]2CC1 | -2.46
CN(Cc1ccsc1)C(=O)Nc1cccnc1N1CCCC1 | 23
Cc1cccc(CN2CCOC3(CCCN(CC(=O)N(C)C)C3)C2)n1 (configuration not stated) | -5.53
c1cnc(N2CCC3(CCN(CC4CCCC4)CC3)C2)nc1 | -1.07
CC(C)COCC(NC(=O)c1ccccn1)c1ccco1 (configuration not stated) | -10.5
COc1ccc(C(C)N(C)Cc2c(C(C)C)[nH]c3ncccc23)cc1 (configuration not stated) | 20.8
